Source: US8097628B2, “Compounds” (Glaxo Group Limited, priority 2008, dated 2012)
Converted amounts (≈) assume the structure as drawn. Where a name gives a salt, the structure may show the parent alone. Read-outs that look alike come from different tables or passages of the source.

System: Mycobacterium tuberculosis H37Rv
Assay: Mycobacterium tuberculosis H37Rv Inhibition Assay
Type: cell-based
[1] = ATCC 25618 / H37Rv, H37Rv strain (ATCC25618), Middlebrook 7H9, resazurin fluorescence, read-out: MtB MIC
[2] = H37Rv inhibition assay, read-out: MIC value

Row | Structure (SMILES) | MIC [1] | MIC [2] | MIC (ATCC 25618 / H37Rv, read-out: MtB MIC)
1 | O=c1ccc2ncc(=O)n3c2n1CC3CN1CCC(NCc2ccc(Br)cc2)CC1 (stereo not shown) [Example 29, 2-[(4-{[(4-bromophenyl)methyl]amino}-1-piperidinyl)methyl]-1,2-dihydro-3H,8H-2a,5,8a-triazaacenaphthylene-3,8-dione] | 0.147 µg/mL (≈ 0.313 µM) | – | –
2 | O=c1ccc2ncc(=O)n3c2n1CC3CN1CCC(NCc2ccc(Cl)c(C(F)(F)F)c2)CC1 (stereo not shown) [Example 16, 2-{[4-({[4-chloro-3-(trifluoromethyl)phenyl]methyl}amino)-1-piperidinyl]methyl}-1,2-dihydro-3H,8H-2a,5,8a-triazaacenaphthylene-3,8-dione] | 0.077 µg/mL (≈ 0.156 µM) | – | –
3 | Cc1cc(CNC2CCN(CC3Cn4c(=O)ccc5ncc(=O)n3c54)CC2)cnc1F (stereo not shown) [Example 33, 2-[(4-{[(6-fluoro-5-methyl-3-pyridinyl)methyl]amino}-1-piperidinyl)methyl]-1,2-dihydro-3H,8H-2a,5,8a-triazaacenaphthylene-3,8-dione] | 0.531 µg/mL (≈ 1.25 µM) | – | –
4 | Cl.O=c1ccc2ccc(=O)n3c2n1C[C@H]3CN1CCC(NCc2ccc(C(F)(F)F)nc2)CC1 [Example 59, (1R)-1-{[4-({[6-(trifluoromethyl)-3-pyridinyl]methyl}amino)-1-piperidinyl]methyl}-1,2-dihydro-4H,9H-imidazo[1,2,3-ij]-1,8-naphthyridine-4,9-dione hydrochloride] | 0.154 µg/mL | – | –
5 | Cc1ncc(CNC2CCN(CC3Cn4c(=O)ccc5ncc(=O)n3c54)CC2)cc1F (stereo not shown) [Example 52, 2-[(4-{[(5-fluoro-6-methyl-3-pyridinyl)methyl]amino}-1-piperidinyl)methyl]-1,2-dihydro-3H,8H-2a,5,8a-triazaacenaphthylene-3,8-dione] | > 2.12 µg/mL | > 1 µg/mL | –
6 | Cl.O=c1ccc2ncc(=O)n3c2n1C[C@H]3CN1CCC(NCc2ccc(Cl)c(Cl)c2)CC1 [Example 3, (2R)-2-[(4-{[(3,4-dichlorophenyl)methyl]amino}-1-piperidinyl)methyl]-1,2-dihydro-3H,8H-2a,5,8a-triazaacenaphthylene-3,8-dione] | 0.04 µg/mL | – | –
7 | Cc1cc(CNC2CCN(C[C@@H]3Cn4c(=O)ccc5ccc(=O)n3c54)CC2)cnc1C [Example 13, (1R)-1-[(4-{[(5,6-dimethyl-3-pyridinyl)methyl]amino}-1-piperidinyl)methyl]-1,2-dihydro-4H,9H-imidazo[1,2,3-ij]-1,8-naphthyridine-4,9-dione] | 1.05 µg/mL (≈ 2.5 µM) | > 1 µg/mL | –
8 | Cc1cc(CNC2CCN(CC3Cn4c(=O)ccc5ncc(=O)n3c54)CC2)ccc1Cl (stereo not shown) [Example 34, 2-[(4-{[(4-chloro-3-methylphenyl)methyl]amino}-1-piperidinyl)methyl]-1,2-dihydro-3H,8H,2a,5,8a-triazaacenaphthylene-3,8-dione] | 0.069 µg/mL (≈ 0.157 µM) | – | –
9 | O=c1ccc2ncc(=O)n3c2n1CC3CN1CCC(NCc2cccc(Cl)c2)CC1 (stereo not shown) [Example 22, 2-[(4-{[(3-chlorophenyl)methyl]amino}-1-piperidinyl)methyl]-1,2-dihydro-3H,8H-2a,5,8a-triazaacenaphthylene-3,8-dione] | 1.06 µg/mL (≈ 2.5 µM) | > 1 µg/mL | –
10 | Cc1ncc(CNC2CCN(CC3Cn4c(=O)ccc5ncc(=O)n3c54)CC2)cc1Cl (stereo not shown) [Example 26, 2-[(4-{[(5-chloro-6-methyl-3-pyridinyl)methyl]amino}-1-piperidinyl)methyl]-1,2-dihydro-3H,8H-2a,5,8a-triazaacenaphthylene-3,8-dione] | 0.069 µg/mL (≈ 0.156 µM) | – | –
11 | N#Cc1ncc(CNC2CCN(C[C@@H]3Cn4c(=O)ccc5ccc(=O)n3c54)CC2)cc1Cl [Example 49, 3-chloro-5-{[(1-{[(1R)-4,9-dioxo-1,2-dihydro-4H,9H-imidazo[1,2,3-ij]-1,8-naphthyridin-1-yl]methyl}-4-piperidinyl)amino]methyl}-2-pyridinecarbonitrile] | 0.07 µg/mL (≈ 0.155 µM) | – | –
12 | Cc1ncc(CNC2CCN(C[C@@H]3Cn4c(=O)cnc5ccc(=O)n3c54)CC2)cc1Br [Example 55, (1R)-1-[(4-{[(5-bromo-6-methyl-3-pyridinyl)methyl]amino}-1-piperidinyl)methyl]-1,2-dihydro-3H,8H-2a,5,8a-triazaacenaphthylene-3,8-dione hydrochloride] | – | – | 0.04 µg/mL
13 | COc1cc(CNC2CCN(CC3Cn4c(=O)ccc5ncc(=O)n3c54)CC2)ccc1C (stereo not shown) [Example 57, 2-{[4-({[4-methyl-3-(methyloxy)phenyl]methyl}amino)-1-piperidinyl]methyl}-1,2-dihydro-3H,8H-2a,5,8a-triazaacenaphthylene-3,8-dione] | 1.09 µg/mL (≈ 2.5 µM) | – | –
14 | Cl.O=c1ccc2ccc(=O)n3c2n1C[C@H]3CN1CCC(NCc2ccc(Cl)c(Cl)c2)CC1 [Example 31, (1R)-1-[(4-{[(3,4-dichlorophenyl)methyl]amino}-1-piperidinyl)methyl]-1,2-dihydro-4H,9H-imidazo[1,2,3-ij]-1,8-naphthyridine-4,9-dione hydrochloride] | 0.019 µg/mL | – | –
15 | O=c1ccc2ncc(=O)n3c2n1CC3CN1CCC(NCc2cnc(Cl)c(Cl)c2)CC1 (stereo not shown) [Example 15, 2-[(4-{[(5,6-dichloro-3-pyridinyl)methyl]amino}-1-piperidinyl)methyl]-1,2-dihydro-3H,8H-2a,5,8a-triazaacenaphthylene-3,8-dione] | < 0.018 µg/mL | – | –
16 | O=c1ccc2ncc(=O)n3c2n1CC3CN1CCC(NCc2ccc(F)c(F)c2)CC1 (stereo not shown) [Example 44, 2-[(4-{[(3,4-difluorophenyl)methyl]amino}-1-piperidinyl)methyl]-1,2-dihydro-3H,8H-2a,5,8a-triazaacenaphthylene-3,8-dione] | 0.267 µg/mL (≈ 0.625 µM) | – | –
17 | COCCc1ncc(CNC2CCN(C[C@@H]3Cn4c(=O)ccc5ncc(=O)n3c54)CC2)cc1Cl [Example 65, (2R)-2-({4-[({5-chloro-6-[2-(methyloxy)ethyl]-3-pyridinyl}methyl)amino]-1-piperidinyl}methyl)-1,2-dihydro-3H,8H-2a,5,8a-triazaacenaphthylene-3,8-dione] | – | > 1 µg/mL | –
18 | O=c1ccc2ncc(=O)n3c2n1CC3CN1CCC(NCc2ccc(Cl)cc2)CC1 (stereo not shown) [Example 21, 2-[(4-{[(4-chlorophenyl)methyl]amino}-1-piperidinyl)methyl]-1,2-dihydro-3H,8H-2a,5,8a-triazaacenaphthylene-3,8-dione] | 0.266 µg/mL (≈ 0.625 µM) | – | –
19 | Cc1ccc(CNC2CCN(CC3Cn4c(=O)ccc5ncc(=O)n3c54)CC2)cc1C (stereo not shown) [Example 25, 2-[(4-{[(3,4-dimethylphenyl)methyl]amino}-1-piperidinyl)methyl]-1,2-dihydro-3H,8H-2a,5,8a-triazaacenaphthylene-3,8-dione] | 0.262 µg/mL (≈ 0.625 µM) | – | –
20 | Cc1ncc(CNC2CCN(C[C@@H]3Cn4c(=O)ccc5ncc(=O)n3c54)CC2)cc1Cl.Cl [Example 2, (2R)-2-[(4-{[(5-chloro-6-methyl-3-pyridinyl)methyl]amino}-1-piperidinyl)methyl]-1,2-dihydro-3H,8H-2a,5,8a-triazaacenaphthylene-3,8-dione hydrochloride] | 0.04 µg/mL | – | –
21 | Cc1cc(CNC2CCN(C[C@@H]3Cn4c(=O)ccc5ccc(=O)n3c54)CC2)ncc1Cl.Cl [Example 7, (1R)-1-[(4-{[(5-chloro-4-methyl-2-pyridinyl)methyl]amino}-1-piperidinyl)methyl]-1,2-dihydro-4H,9H-imidazo[1,2,3-ij]-1,8-naphthyridine-4,9-dione hydrochloride] | 0.3 µg/mL | – | –
22 | Cc1ncc(CNC2CCN(C[C@@H]3Cn4c(=O)ccc5ccc(=O)n3c54)CC2)cc1Cl.Cl [Example 1, (1R)-1-[(4-{[(5-chloro-6-methyl-3-pyridinyl)methyl]amino}-1-piperidinyl)methyl]-1,2-dihydro-4H,9H-imidazo[1,2,3-ij]-1,8-naphthyridine-4,9-dione hydrochloride] | 0.04 µg/mL | – | –
